Entries after “also recorded” stand apart in the source; their conditions may differ.
Assays:
solubility in water = assay type: physicochemical
[1] = variable-temperature powder X-ray diffraction, crystal form stability at high temperatures; assay type: physicochemical; details: heated from 30° C. to 80° C.; powder X-ray diffraction at 35, 45, 55, 65 and 75° C.
Description: The crystalline form I of (R)-4-hydroxy-2-oxo-1-pyrrolidineacetamide of the invention was placed on a single crystal silicon sample stage, heated from 30° C. to 80° C., and subjected to powder X-ray diffraction measurement at 35° C., 45° C., 55° C., 65° C. and 75° C., respectively. […] It can be seen that the crystalline form I of (R)-4-hydroxy-2-oxo-1-pyrrolidineacetamide of the invention has good stability at high temperatures. When the crystalline form I of (R)-4-hydroxy-2-oxo-1-pyrrolidineacetamide of the invention is used for storage or formulation processing, the requirements on processing and storage temperatures are reduced.

solubility (solubility in water): ≥ 90 mg/mL
Compound: NC(=O)CN1C[C@H](O)CC1=O [crystalline form I, (R)-4-hydroxy-2-oxo-1-pyrrolidineacetamide]
crystal transformation on heating (stability at high temperatures) [1]: does not show a phenomenon of crystal transformation; also recorded: does not exhibit crystal transformation phenomenon

Source: patent US10556863B1, “Crystalline form of (R)-4-hydroxy-2-oxo-1-pyrrolidineacetamide, preparation method therefor and use thereof” (CHONGQING RUNZE PHARMACEUTICAL COMPANY LIMITED, priority 2016, dated 2020)
